Test results published in ChEMBL document CHEMBL1149864, “Benzofused N-substituted cyclic enediynes: activation and DNA-cleavage potential” (Bioorg Med Chem, 2008).
One block for each compound: values may come before it. Calls of active or inactive are those of the source. No cut-off for these calls is given here.

Columns and labels:
[1] = Chemical stability assessed as half life at 70 degC; format: physicochemical
[2] = Chemical stability assessed as half life at 60 degC; format: physicochemical
[3] = test system: Escherichia coli; test: Induction of Escherichia coli pBR322 DNA cleavage assessed as generation of form 3 at 20 uM at pH 8.0 after 48 hrs
[4] = test system: Escherichia coli; test: Induction of Escherichia coli pBR322 DNA cleavage assessed as generation of form 3 at 20 uM at pH 8.0 after 24 hrs
[5] = test system: Escherichia coli; test: Induction of Escherichia coli pBR322 DNA cleavage assessed as generation of form 3 at 20 uM at pH 8.0 after 12 hrs
[6] = test system: Escherichia coli; test: Induction of Escherichia coli pBluescript SK+ DNA cleavage assessed as generation of form 3 at 20 uM at pH 8.0 after 48 hrs
[7] = Chemical stability assessed as half life at 30 degC; format: physicochemical
[8] = test system: Escherichia coli; test: Induction of Escherichia coli pBR322 DNA cleavage at 0.4 uM at pH 8.0 after 24 hrs
[9] = test system: Escherichia coli; test: Induction of Escherichia coli pBR322 DNA cleavage at 0.4 uM at pH 7.5 after 24 hrs
[10] = Chemical stability assessed as half life at 50 degC; format: physicochemical
[11] = test system: Escherichia coli; test: Induction of Escherichia coli pBluescript SK+ DNA cleavage assessed as generation of form 3 at 20 uM at pH 8.0 after 12 hrs
[12] = test system: Escherichia coli; test: Induction of Escherichia coli pBR322 DNA cleavage at 0.4 uM at pH 8.5 after 24 hrs

SMILES: Cc1ccc(S(=O)(=O)N2CC#Cc3ccccc3C#CCC2)cc1
- half-life [1]: 48 h

SMILES: O=[N+]([O-])c1ccc2c(c1)C#CCCNCC#C2
- Activity [3]: Active
- Activity [4]: Active

SMILES: C1#Cc2ccccc2C#CCNCC1.Cc1ccc(S(=O)(=O)O)cc1
- Activity [5]: Active
- Activity [6]: inactive
- half-life [7]: 770 h
- Activity [4]: Active
- Activity [8]: Active
- Activity [9]: Active
- half-life [10]: 130 h
- Activity [11]: inactive
- Activity [12]: Active

Other lines, results leading:

- half-life [1]: 9.5 h
SMILES: O=[N+]([O-])c1ccc(S(=O)(=O)N2CC#Cc3cc([N+](=O)[O-])c([N+](=O)[O-])cc3C#CCC2)cc1

- half-life [2]: 138 h
- half-life [1]: 12 h
SMILES: O=[N+]([O-])c1ccc(S(=O)(=O)N2CC#Cc3ccc([N+](=O)[O-])cc3C#CCC2)cc1
